From patent publication EP4596570A1, “SRC INHIBITORS AND USES THEREOF” (Universitat de Barcelona, priority 2024, dated 2025)
Entries after “also recorded” stand apart in the source; their conditions may differ.

Assays:
Assay type in all cases: cell-based, human
[1] = tested on: SW620-src colorectal cancer cells; assay: Cell viability assay (MTT); conditions: 72h, varying concentrations, much higher than those used in biological activity assays, Fig. 13
Method: (§1) SW620-src colorectal cancer cells were a kind gift of Dr. Serge Roche group. These cells have been stably transfected with human Src as described in Aponte, E., et al. (2021). "Regulation of Src tumor activity by its N-terminal intrinsically disordered region." Oncogene, 41: 960-970.. SW620-src colorectal cancer cells were grown in DMEM supplemented with 10% FBS (Gibco 10500-064), 1% GlutaMAX (Gibco 35050038) 1% P/S (Corning 30-002-CI). Cell lines were grown at 37°C with an atmosphere of 95% air, 5% CO2. All the reagents used during cell culture procedures were heated to 37°C in a water bath before its use. Before each assay, the absence of mycoplasma was tested according to a previously described protocol (Molla Kazemiha, V., et al. (2009). "PCR-based detection and eradication of mycoplasmal infections from various mammalian cell lines: a local experience." Cytotechnology 61(3): 117-124).
Cell viability was measured by MTT assay as described before (Kamiloglu, S., et al. (2020). "Guidelines for cell viability assays." Food Frontiers 1(3): 332-349).. […]
SW620-src cells were seeded into 96-well plates containing 100 µL of the growth medium at a density of 10000 cells/well for and cultured for one day. […] Afterwards, the plates were read under 570/690 nm wavelengths by plate reader (Synergy HTX, Biotek).

[2] = tested on: SW620-src colorectal cancer cells; assay: Soft agar colony formation assay; conditions: Src transformed SW620 colorectal cancer cells, 5 µM of Drugs, 3 weeks, colonies with >50 cells counted; Fig. 11
Method: as §1
Cells were plated at density of 10,000 per well in 24-well plates in 0.3% soft agar on top of a base layer of 0.7% agar. The cells were treated with 5 µM of Drugs, and the plates were incubated for 3 weeks, replacing the media every week. […] These experiments were repeated twice with 4 replicates per group, and only colonies with >50 cells were counted.

[3] = tested on: SW620-src colorectal cancer cells; assay: Wound healing assay (scratch, cell migration); conditions: Src transformed SW620 cells, 24h after scratch; Fig. 12
Method: as §1, with “Before each assay, the absence of mycoplasma was tested according to a previously described protocol (Molla Kazemiha, V., et al. (2009). "PCR-based detection and eradication of mycoplasmal infections from various mammalian cell lines: a local experience." Cytotechnology 61(3): 117-124).” left out
Cells were plated into 24-well plate at density of 500,000 cells/well and were cultured until they reach a 100% confluence. […] Each well was photographed in the same site to quantify cell migration after 24 hours. […] The obtained images were analyzed by Imaged software (Schindelin, J., et al. (2012). "Fiji: an open-source platform for biological-image analysis." Nature Methods 9(7): 676-682) using the MRI wound healing tool plugin (Suarez-Arnedo, A., et al. (2020). "An image J plugin for the high throughput image analysis of in vitro scratch wound healing assays." PLOS ONE 15(7): e0232565) . […]

Compound	cell viability [1]	colony formation [2]	migration of cancer cells (scratch wound healing) [3]
COC(=O)N[C@@H](CO)C(=O)N[C@@H](CC(C)C)C(=O)N[C@@H](CCC(=O)O)C(=O)N1CCC[C@H]1c1cn(-c2ccc(-c3ccc(-n4cc([C@@H]5CCCN5C(=O)[C@H](CCC(=O)O)NC(=O)[C@H](CC(C)C)NC(=O)[C@H](CO)NC(=O)OC)nn4)cc3)cc2)nn1 [SLE-Me, Moc-Ser-Leu-Glu-1-Glu-Leu-Ser-Moc]	do not significantly affect cell viability	–	–
COC(=O)NC(C(=O)N1CCC[C@H]1c1cn(-c2ccc(-c3ccc(-n4cc([C@@H]5CCCN5C(=O)C(NC(=O)OC)C(C)C)nn4)cc3)cc2)nn1)C(C)C (stereo partly drawn) [V-Me, Moc-Val-1-Val-Moc]	do not significantly affect cell viability	significantly reduced; also recorded: significantly decrease	significantly reduced; also recorded: significantly impair
Moc-Leu-Lys-1-Lys-Leu-Moc [LK-Me]	–	does not show significant biological activity; also recorded: no effect	does not show significant biological activity; also recorded: no effect
